Where “and” joins values, the source holds several entries; their conditions need not be identical. Identical values can stand only once.
Legend:
[1] = target: T1, PRDM9 (amino acids: 195–415) (Homo sapiens, UniProt Q9NQV7); assay: PRDM9 methyltransferase activity assay (3H-SAM scintillation proximity assay); assay type: biochemical; conditions: 100 µM compound
T1 construct: PRDM9 (amino acids: 195–415)
T1 sequence (Q9NQV7 195-415): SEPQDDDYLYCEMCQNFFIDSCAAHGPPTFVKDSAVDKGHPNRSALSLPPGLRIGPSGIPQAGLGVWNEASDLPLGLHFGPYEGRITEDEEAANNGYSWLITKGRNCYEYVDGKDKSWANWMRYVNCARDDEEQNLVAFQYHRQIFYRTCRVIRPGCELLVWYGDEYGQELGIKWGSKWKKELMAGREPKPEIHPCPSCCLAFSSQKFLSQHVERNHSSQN

[2] = target: PRDM1 (Homo sapiens, UniProt O75626); assay: DSF thermal stabilisation, PRDM selectivity; assay type: binding; conditions: 250 µM MRK-740; 2 mM SAM
Description: (§1) DSF measurements were performed as previously described[21] using a Light Cycler 480 II instrument from Roche Applied Science. All proteins tested in these selectivity experiments were used at final concentration of 0.02 mg mL^−1 in a 0.1 M HEPES, pH 7.5 and 150 mM NaCl buffer in the presence of 2 mM SAM. Sypro Orange was purchased from Invitrogen as a 5000 × stock solution (concentration not specified by vendor) and was diluted 1:1000 to yield a 5 × working concentration. The temperature scan curves were fitted to a Boltzmann sigmoid function, and the Tm values were obtained from the midpoint of the transition.

[3] = target: PRDM16 (Homo sapiens, UniProt Q9HAZ2); assay: DSF thermal stabilisation, PRDM selectivity; assay type: binding; conditions: 250 µM MRK-740; 2 mM SAM
Chain of PRDM16 (Q9HAZ2 whole entry): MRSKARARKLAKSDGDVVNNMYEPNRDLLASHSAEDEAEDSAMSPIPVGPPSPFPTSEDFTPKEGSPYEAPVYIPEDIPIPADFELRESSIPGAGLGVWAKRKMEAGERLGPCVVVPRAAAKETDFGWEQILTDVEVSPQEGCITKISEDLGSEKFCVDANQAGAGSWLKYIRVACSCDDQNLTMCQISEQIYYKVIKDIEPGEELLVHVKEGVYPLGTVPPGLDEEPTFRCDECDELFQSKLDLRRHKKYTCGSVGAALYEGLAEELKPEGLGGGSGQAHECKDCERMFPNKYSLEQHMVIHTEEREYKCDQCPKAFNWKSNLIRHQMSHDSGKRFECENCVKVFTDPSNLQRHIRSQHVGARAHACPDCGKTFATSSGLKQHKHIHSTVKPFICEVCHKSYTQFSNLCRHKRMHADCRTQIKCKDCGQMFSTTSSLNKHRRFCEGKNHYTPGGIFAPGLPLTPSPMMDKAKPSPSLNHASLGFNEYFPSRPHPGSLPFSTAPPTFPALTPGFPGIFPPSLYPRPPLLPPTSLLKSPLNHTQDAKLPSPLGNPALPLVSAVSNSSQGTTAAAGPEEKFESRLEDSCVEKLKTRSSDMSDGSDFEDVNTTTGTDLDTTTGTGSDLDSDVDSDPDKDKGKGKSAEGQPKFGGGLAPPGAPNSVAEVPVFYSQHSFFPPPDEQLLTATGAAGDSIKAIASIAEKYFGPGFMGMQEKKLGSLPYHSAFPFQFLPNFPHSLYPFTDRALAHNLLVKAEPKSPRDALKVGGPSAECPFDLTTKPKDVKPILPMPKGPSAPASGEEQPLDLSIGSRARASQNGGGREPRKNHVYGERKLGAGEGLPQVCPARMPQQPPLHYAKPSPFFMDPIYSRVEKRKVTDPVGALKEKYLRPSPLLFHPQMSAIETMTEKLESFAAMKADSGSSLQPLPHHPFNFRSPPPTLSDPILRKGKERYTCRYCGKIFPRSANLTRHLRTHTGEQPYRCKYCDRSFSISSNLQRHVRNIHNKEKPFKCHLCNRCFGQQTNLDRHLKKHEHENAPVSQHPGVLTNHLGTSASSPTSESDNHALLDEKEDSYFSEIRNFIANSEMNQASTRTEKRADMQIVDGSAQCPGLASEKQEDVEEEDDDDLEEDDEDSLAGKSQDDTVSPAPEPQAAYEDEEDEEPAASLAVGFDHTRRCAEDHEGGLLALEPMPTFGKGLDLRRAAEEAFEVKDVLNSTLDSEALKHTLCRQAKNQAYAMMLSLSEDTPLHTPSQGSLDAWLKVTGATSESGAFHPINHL
Description: as §1

[4] = target: PRDM2 (Homo sapiens, UniProt Q13029); assay: DSF thermal stabilisation, PRDM selectivity; assay type: binding; conditions: 250 µM MRK-740; 2 mM SAM
Description: as §1

[5] = target: PRDM11 (Homo sapiens, UniProt Q9NQV5); assay: DSF thermal stabilisation, PRDM selectivity; assay type: binding; conditions: 250 µM MRK-740; 2 mM SAM
Chain of PRDM11 (Q9NQV5 whole entry): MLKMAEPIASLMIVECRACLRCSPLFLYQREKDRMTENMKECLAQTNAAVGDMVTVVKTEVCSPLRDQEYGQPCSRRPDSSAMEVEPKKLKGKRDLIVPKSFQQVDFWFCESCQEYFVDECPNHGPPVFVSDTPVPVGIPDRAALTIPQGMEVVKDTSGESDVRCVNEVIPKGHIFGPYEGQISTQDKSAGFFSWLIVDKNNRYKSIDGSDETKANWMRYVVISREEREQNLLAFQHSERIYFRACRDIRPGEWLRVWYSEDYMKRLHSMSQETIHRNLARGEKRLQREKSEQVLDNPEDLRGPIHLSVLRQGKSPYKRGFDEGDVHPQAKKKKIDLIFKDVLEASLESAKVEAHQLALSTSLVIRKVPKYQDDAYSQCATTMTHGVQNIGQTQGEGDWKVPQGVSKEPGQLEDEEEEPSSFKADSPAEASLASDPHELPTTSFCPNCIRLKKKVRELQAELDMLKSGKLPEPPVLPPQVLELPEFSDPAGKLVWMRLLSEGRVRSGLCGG
Description: as §1

[6] = target: PRDM10 (Homo sapiens, UniProt Q9NQV6); assay: DSF thermal stabilisation, PRDM selectivity; assay type: binding; conditions: 250 µM MRK-740; 2 mM SAM
Chain of PRDM10 (Q9NQV6 whole entry): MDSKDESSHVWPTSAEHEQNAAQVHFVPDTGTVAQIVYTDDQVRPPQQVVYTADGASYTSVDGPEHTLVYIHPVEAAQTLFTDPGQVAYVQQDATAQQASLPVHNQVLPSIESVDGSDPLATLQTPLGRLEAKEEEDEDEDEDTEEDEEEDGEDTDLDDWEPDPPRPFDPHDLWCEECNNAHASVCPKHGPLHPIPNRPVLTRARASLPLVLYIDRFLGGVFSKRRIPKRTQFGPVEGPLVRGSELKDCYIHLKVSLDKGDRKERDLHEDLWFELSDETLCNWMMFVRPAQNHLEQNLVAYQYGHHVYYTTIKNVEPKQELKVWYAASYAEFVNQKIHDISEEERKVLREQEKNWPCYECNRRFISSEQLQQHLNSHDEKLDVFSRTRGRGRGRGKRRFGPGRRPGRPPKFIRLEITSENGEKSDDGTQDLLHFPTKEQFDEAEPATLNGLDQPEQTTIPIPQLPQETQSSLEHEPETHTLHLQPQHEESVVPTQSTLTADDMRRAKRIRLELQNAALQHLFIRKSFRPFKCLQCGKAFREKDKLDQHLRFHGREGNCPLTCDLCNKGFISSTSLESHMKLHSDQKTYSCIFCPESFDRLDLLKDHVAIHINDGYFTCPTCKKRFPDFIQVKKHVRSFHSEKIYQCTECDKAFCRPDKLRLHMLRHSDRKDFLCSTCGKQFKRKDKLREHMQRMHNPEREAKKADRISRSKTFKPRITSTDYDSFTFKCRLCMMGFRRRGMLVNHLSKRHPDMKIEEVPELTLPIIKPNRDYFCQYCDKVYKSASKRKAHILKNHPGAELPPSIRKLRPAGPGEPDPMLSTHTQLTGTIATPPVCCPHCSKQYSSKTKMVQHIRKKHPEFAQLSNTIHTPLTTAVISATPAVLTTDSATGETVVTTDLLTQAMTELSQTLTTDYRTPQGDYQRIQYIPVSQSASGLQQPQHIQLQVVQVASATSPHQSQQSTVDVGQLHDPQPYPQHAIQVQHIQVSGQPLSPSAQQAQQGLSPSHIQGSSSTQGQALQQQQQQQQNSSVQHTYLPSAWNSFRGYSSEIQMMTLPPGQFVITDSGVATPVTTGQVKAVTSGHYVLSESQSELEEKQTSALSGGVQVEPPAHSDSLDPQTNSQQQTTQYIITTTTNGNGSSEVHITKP
Description: as §1

[7] = target: PRDM14 (Homo sapiens, UniProt Q9GZV8); assay: DSF thermal stabilisation, PRDM selectivity; assay type: binding; conditions: 250 µM MRK-740; 2 mM SAM
Chain of PRDM14 (Q9GZV8 whole entry): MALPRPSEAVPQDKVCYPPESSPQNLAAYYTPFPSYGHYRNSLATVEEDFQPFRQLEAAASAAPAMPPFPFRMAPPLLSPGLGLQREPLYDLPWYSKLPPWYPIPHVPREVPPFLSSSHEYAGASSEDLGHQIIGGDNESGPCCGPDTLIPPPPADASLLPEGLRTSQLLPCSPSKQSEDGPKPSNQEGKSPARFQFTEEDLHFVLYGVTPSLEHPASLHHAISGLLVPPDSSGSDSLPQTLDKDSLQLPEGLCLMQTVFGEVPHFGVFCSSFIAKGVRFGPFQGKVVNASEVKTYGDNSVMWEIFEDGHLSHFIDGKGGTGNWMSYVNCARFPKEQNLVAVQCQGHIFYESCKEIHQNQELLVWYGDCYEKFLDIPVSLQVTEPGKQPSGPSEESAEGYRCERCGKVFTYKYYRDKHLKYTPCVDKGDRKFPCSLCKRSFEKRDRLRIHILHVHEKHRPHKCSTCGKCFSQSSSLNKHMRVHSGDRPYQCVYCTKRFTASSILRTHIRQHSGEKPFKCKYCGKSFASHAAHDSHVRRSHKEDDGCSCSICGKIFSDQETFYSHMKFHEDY
Description: as §1

[8] = target: PRDM8 (Homo sapiens, UniProt Q9NQV8); assay: DSF thermal stabilisation, PRDM selectivity; assay type: binding; conditions: 250 µM MRK-740; 2 mM SAM
Description: as §1

[9] = target: PRDM3 (Homo sapiens, UniProt Q03112); assay: DSF thermal stabilisation, PRDM selectivity; assay type: binding; conditions: 250 µM MRK-740; 2 mM SAM
Description: as §1

[10] = target: PRDM13 (Homo sapiens, UniProt Q9H4Q3); assay: DSF thermal stabilisation, PRDM selectivity; assay type: binding; conditions: 250 µM MRK-740; 2 mM SAM
Chain of PRDM13 (Q9H4Q3 whole entry): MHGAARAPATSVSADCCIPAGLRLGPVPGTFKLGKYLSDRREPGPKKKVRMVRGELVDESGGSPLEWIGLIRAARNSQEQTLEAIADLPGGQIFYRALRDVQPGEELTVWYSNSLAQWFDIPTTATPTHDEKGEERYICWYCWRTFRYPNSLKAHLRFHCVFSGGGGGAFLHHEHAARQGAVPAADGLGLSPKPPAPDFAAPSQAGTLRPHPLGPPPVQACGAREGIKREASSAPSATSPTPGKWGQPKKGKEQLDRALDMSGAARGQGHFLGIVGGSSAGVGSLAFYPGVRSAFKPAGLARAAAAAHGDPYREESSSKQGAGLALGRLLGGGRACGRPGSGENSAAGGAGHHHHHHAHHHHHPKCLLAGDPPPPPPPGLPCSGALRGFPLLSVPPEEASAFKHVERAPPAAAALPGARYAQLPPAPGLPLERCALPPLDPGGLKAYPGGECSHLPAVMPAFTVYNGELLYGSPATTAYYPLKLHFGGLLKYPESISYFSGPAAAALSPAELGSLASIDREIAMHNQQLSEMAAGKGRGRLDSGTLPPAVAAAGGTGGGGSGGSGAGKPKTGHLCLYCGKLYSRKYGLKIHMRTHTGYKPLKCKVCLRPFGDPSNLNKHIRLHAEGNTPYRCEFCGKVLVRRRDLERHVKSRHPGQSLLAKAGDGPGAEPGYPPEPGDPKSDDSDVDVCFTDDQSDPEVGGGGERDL
Description: as §1

[11] = target: T2, Adrenergic α2B (Homo sapiens, UniProt P18089); assay: Eurofins Panlabs panel, radioligand binding; conditions: at 10 µM
T2 construct: NIMH Psychoactive Drug Screening Program, University of North Carolina at Chapel Hill
T2 sequence (P18089 whole entry): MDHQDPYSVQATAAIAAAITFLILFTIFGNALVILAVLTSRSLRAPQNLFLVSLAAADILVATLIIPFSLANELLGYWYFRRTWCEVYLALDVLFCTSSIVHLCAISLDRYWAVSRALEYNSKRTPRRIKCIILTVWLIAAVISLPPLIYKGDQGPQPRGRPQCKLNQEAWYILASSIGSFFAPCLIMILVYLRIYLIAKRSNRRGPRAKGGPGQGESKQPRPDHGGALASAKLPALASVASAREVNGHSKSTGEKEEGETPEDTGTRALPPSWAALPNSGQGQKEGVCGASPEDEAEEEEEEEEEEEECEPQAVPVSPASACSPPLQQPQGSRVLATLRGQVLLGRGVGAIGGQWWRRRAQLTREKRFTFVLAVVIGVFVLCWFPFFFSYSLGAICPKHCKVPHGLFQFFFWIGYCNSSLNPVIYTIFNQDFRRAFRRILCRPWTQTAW

[12] = target: T3, Biotinylated PRDM9 (amino acids 195–415) (Homo sapiens, UniProt Q9NQV7); assay: Surface plasmon resonance (SPR) binding; design: key to SPR steady state response, raw data (Y): response units (RU); conditions: for SPR steady state response, raw data (Y): 350 µM SAM, Exp1–4
T3 construct: Biotinylated PRDM9 (amino acids 195–415)
T3 sequence (Q9NQV7 195-415): T1 sequence (Q9NQV7 195-415)
Description: Biotinylated PRDM9 (amino acids 195–415) was immobilized on the flow cell of a SA sensor chip in 1x HBS-EP buffer, yielding 5700 RU. Using the buffer with 0.5% DMSO, 350 µM SAM and single cycle kinetic with 60 s contact time and a dissociation time of 120 s at a flow rate of 75 µL/min. […] Only binding to PRDM9 and PRDM7 with ∆Tm of higher than 2 °C was observed. […] All (c–e) experiments were performed in triplicate (n = 3) and data points are presented as average ± standard deviation. Source data are provided as a Source Data file.
Binding studies by SPR were performed using a Biacore T200 (GE Health Sciences Inc.) at 20 °C. Biotinylated PRDM9 was captured onto a flow cell of a streptavidin-conjugated SA chip at approximately 5000 response units (RU) according to manufacturer’s protocol while another flow cell was left empty for reference subtraction. […]
in the presence of SAM are the same as presented in figure 2 (a and b) within the main text. The experiments were performed in quadruplicate in the presence of 350 µM SAM (5x Km) or 750 µM SAH (5x IC50). Biotinylated PRDM9 (195-415aa) was immobilized on the flow cell of an SA sensor chip in 1x HBS-EP buffer, yielding 5700 RU. Using the buffer with 0.5% DMSO, 350 µM SAM or 750 µM SAH and single cycle kinetics with 60 s contact time and a dissociation time of 120 s at a flow rate of 75 µL/min. […]
and at 20 µM in the presence of SAH as the highest concentration. Dilution factor of 0.33 was used to yield 5 concentrations.

## COc1cc(OC)cc(-c2noc(N3CCN(C)C4(CCN(c5ccccc5)CC4)C3)n2)c1 [MRK-740-NC]
[1]
  PRDM9-Activity %, single experiments: 82.7625% and 75.9398%

## COc1cc(OC)cc(-c2noc(N3CCN(C)C4(CCN(c5ccnc(C)c5)CC4)C3)n2)c1 [MRK-740]
[2]
  ∆ Tm (°C), DSF: -0.458 °C
[3]
  ∆ Tm (°C), DSF: -0.225 °C
[4]
  ∆ Tm (°C), DSF: -1.1 °C
[5]
  ∆ Tm (°C), DSF: -0.536 °C
[6]
  ∆ Tm (°C), DSF: -0.4 °C
[7]
  ∆ Tm (°C), DSF: -2.3 °C
[8]
  ∆ Tm (°C), DSF: 1.4 °C
[9]
  ∆ Tm (°C), DSF: -1.3 °C
[10]
  ∆ Tm (°C), DSF: -1.0 °C
[11]
  Binding: > 50%
[12]; 750 µM SAH versus 350 µM SAM
  Binding to PRDM9 in the presence of SAH, compared with SAM (in words): dramatically weaker
[12]; X = 1.11E-07 (concentration, unit not given)
  SPR steady state response, raw data (Y): 22.0666 and 21.2987 and 20.382 and 19.6958
[12]; X = 1.23E-08 (concentration, unit not given)
  SPR steady state response, raw data (Y): 5.847 and 5.521 and 5.156 and 5.206
[12]; X = 3.70E-08 (concentration, unit not given)
  SPR steady state response, raw data (Y): 12.6421 and 12.2536 and 11.7778 and 11.3155
[12]; in the presence of 350 µM SAM
  kon: 1.2e+06 ± 1e+11 M⁻¹ s⁻¹
[12]; in the presence of 350 µM SAM, n = 4, read-out: Kd, SPR kinetic fit
  Kd: 87 ± 5 nM

From paper PMC6917776, “Discovery of a chemical probe for PRDM9” (Nature Communications, 2019)
